Laboratory results from patent publication US11478464B1, “Method for treating inflammation” (KING FAISAL UNIVERSITY, priority 2022, dated 2022).
Several values for one entry are separate records, joined by “and”; a condition that tells them apart may be missing. Identical values can stand only once. Entries after “also recorded” stand apart in the source; their conditions may differ. Like-named read-outs stand apart in the source and are kept apart here.

Legend:
rat stomach [1] = assay: Ulcerogenic effect on rat stomach (histopathology); type: in vivo; conditions: for Rat stomach collagen deposition, Masson's Trichrome stain, 10× / Rat stomach collagen deposition, Masson's Trichrome stain / Rat stomach collagen deposition, Masson's Trichrome stain, 40×: 20 mg/kg oral single dose, 24 hours; for Rat stomach collagen deposition, Masson's Trichrome stain: 10× and 40×; for Effect on gastric mucosa, in words: rat stomach
Method: Rats were starved for 24 hours at a normal room temperature of 25° C. with a 12-hour light/dark cycle. The reference drug for comparison was indomethacin. All compounds were administered orally at a single dose of 20 mg/kg. The rats were sacrificed after 24 hours, and their stomachs were retrieved and cleansed with normal saline. Each group's stomachs were examined using binocular magnification to detect the presence of a gastric lesion on the mucosa. The stomachs were then preserved in 10% w/v formalin for histological analysis. Exemplary photomicrographs are included in FIGS. 5A to 5H, and FIGS. 6A to 6H, as discussed further below.
This was accomplished by histopathologic examination of rat stomachs stained by Masson's Trichrome stain. See the photomicrographs of exemplary sections depicted in FIGS. 6A to 6H. Again, after application of Masson's Trichrome, the collagen fibrils are stained blue-green. The double-headed arrow represents collagen fibrils thickness in the submucosa.

rat paw = assay: Histopathologic examination of carrageenan-treated rat paw (H&E, Masson's trichrome); type: in vivo; conditions: for Rat paw collagen deposition, Masson's Trichrome stain / Rat paw histopathology, H&E, 10× magnification: 10×; for Rat paw histopathology, H&E: inflammatory reaction and edema: H&E stain
Method: The rat paws were removed and promptly cleaned in saline solution. The specimens were then fixed in 10% natural formalin for two days, and then rinsed with running water overnight. The cleaned samples were then dehydrated in increasing concentrations of ethyl alcohol, beginning with 70% and ending with absolute alcohol.
The samples were cleared by soaking them in xylol for 2 hours. The cleared samples were placed in a covered jar containing 50% paraffin in xylol for 3 hours at 37° C. The samples were then immersed in melting paraffin and maintained at 48° C. for 2 hours before being blocked in hard paraffin and cut into 5-micron sections. Hematoxylin and eosin (H&E) and Masson's trichrome were used to stain the sections. To prepare for histopathological investigation, sections of control rat paws, as well as rat paws treated with carrageenan alone or along with Compound 1, Compound 2, or indomethacin, were mounted with Canada balsam and coated with a coverslip.
The density of the blue-green collagen is consistent with the relative amount of deposited total collagen fiber, which represents collagen synthesis, degradation, and remodeling—some of which is associated with inflammation.

HEK293 cells = conditions: 40 μM; for Proliferation of HEK293 (difference in absorbance between 450 and 620 nm), individual wells: WST-1
Method: HEK293 cells were treated with the compound solution at 40 μM or the vehicle dimethyl sulfoxide (DMSO) for 24 hours, with the addition of 5% fetal ox-like serum for recognition of cell feasibility reliant on mitochondrial movement.
Three wells were tested for each treatment. WST-1 reagent was added to each well, and the cells were incubated at 37° C.

[2] = system: carrageenan-induced rat paw edema; assay: Carrageenan-induced paw edema in rats; type: in vivo; conditions: 10 mg/kg oral; for Paw size: individual rats; for Paw size, Average: average over all measurements 0-5 hours
Method: Carrageenan was injected subcutaneously into a rodent's paw to generate inflammation due to plasma extravasation, tissue proliferation, plasma protein release, and neutrophilic extravasation, all of which are caused by arachidonic acid digestion. The major phase of inflammation occurs after the carrageenan infusion, and lasts about two hours. This primary stage is associated with the emergence of histamine and serotonin. The next stage frequently is remodeling and edema, which lasts about five hours and begins at about the third hour after administration of carrageenan. The appearance of prostaglandins, proteases, and lysosomes is associated with this second stage of inflammation.
Adult male albino rats weighing 120 g-150 g were divided into five groups of seven rats, allowed free access to food and water at 25° C. and 12 h light/dark cycle. Inflammation was generated in the rats by subplantar injection of 0.2 ml of 1% carrageenan solution in 0.9 percent saline (Sigma-Aldrich, St. Louis, Mo., USA), and injected into the right hind paw. A vernier caliper (SMIEC, Shanghai, China) was used to measure the thickness of the rat paws before and after carrageenan injection to provide a measure of the inflammation caused by carrageenan.
Paw edema was measured at 0 minutes, 30 minutes, and 1, 2, 3, 4, and 5 hours following administration of the medication. Inhibition of edema was indicated by the reduction of increased thickness when comparing the treated and control groups.

rat stomach [3] = assay: Ulcerogenic effect on rat stomach (histopathology); type: in vivo; conditions: 20 mg/kg oral single dose, 24 hours; for Rat stomach gastric layers, H&E: 10×; for Rat stomach inflammatory reaction, H&E: 40×

For Cc1cccc2[nH]c(C3CCCN(C(=O)c4ccccc4NCC(=O)O)C3)nc12 (stereo not shown) [Compound 1, [(2-{[3-(4-methyl-1H-benzimidazol-2-yl)piperidin-1-yl]carbonyl}phenyl)amino] acetic acid], the “Rat stomach collagen deposition, Masson's Trichrome stain, 10×” value (shortened to “Rat stomach collagen deposition … 10×”) (rat stomach [1]) was “normal collagen deposition”, the “Rat stomach collagen deposition, Masson's Trichrome stain” value (rat stomach [1]) was “normal collagen deposition” and the “Rat stomach collagen deposition, Masson's Trichrome stain, 40×” value (“Rat stomach collagen deposition … 40×” for short) (rat stomach [1]) was “normal collagen deposition”. For the same molecule, the “Effect on gastric mucosa, in words” value (rat stomach [1]) was “no effect on gastric mucosa integrity or mucosa collagen content; also recorded: devoid of side effects on gastric mucosa”, the “Rat paw collagen deposition, Masson's Trichrome stain” value (“Rat paw collagen deposition” below) (rat paw) was “slight collagen deposition” and the “Rat paw histopathology, H&E, 10× magnification” value (rat paw) was “significant decrease in dermal thickness, inflammatory reaction in the deep dermis (black star), and moderate improvement in edema”. For the same molecule, the “Rat paw histopathology, H&E, 40× magnification” value (rat paw) was “slight inflammatory reaction (black star) and slight edema”, the “Rat paw histopathology, H&E: inflammatory reaction and edema” value (rat paw) was “reduce inflammatory cell infiltration and alleviate edema with lesser collagen deposition; also recorded: marked improvement in the degree of edema and the inflammatory cell infiltration” and the “Proliferation of HEK293 (difference in absorbance between 450 and 620 nm), individual wells” value (HEK293 cells; 24 hours) was 1.0653 and 1.0573 and 1.0547. For the same molecule, the “Proliferation of HEK293 (difference in absorbance between 450 and 620 nm), Average” value (HEK293 cells; 24 hours, WST-1, three wells) was 1.06, the “Effect on rat paw edema, in words” value [2] was “demonstrated to treat paw swelling; also recorded: significant decreases in rat paw size; also recorded: dramatically reduced” and the Paw size ([2]; 30 min) was 0.7 cm (3×) and 0.65 cm (4×). The Paw size ([2]; 1 hour) was 0.55 cm and 0.5 cm (4×) and 0.45 cm (2×), the Paw size ([2]; 2 hours) was 0.5 cm (2×) and 0.45 cm (3×) and 0.4 cm (2×) and the Paw size ([2]; 3 hours) was 0.4 cm (3×) and 0.35 cm and 0.45 cm (3×). The Paw size ([2]; 4 hours) was 0.45 cm (2×) and 0.4 cm (4×) and 0.5 cm, the Paw size ([2]; 5 hours) was 0.55 cm and 0.6 cm (4×) and 0.65 cm (2×) and the “Paw size, Average” value [2] was 0.542 cm. For the same molecule, the Paw size ([2]; zero time) was 0.75 cm (4×) and 0.7 cm (3×), the “Rat stomach gastric layers, H&E” value (rat stomach [3]) was “normal gastric layers” and the “Rat stomach inflammatory reaction, H&E” value (rat stomach [3]) was “no sign of inflammatory reaction”. For the same molecule, the “Rat stomach inflammatory reaction, H&E” value (rat stomach [3]; listed as compound 1) was “absence of any inflammatory reaction”.
For COc1ccc2c(c1)c(CC(=O)O)c(C)n2C(=O)c1ccc(Cl)cc1 [Indomethacin, reference compound], the “Rat stomach collagen deposition … 10×” value (rat stomach [1]) was “significant collagen deposition”, the “Rat stomach collagen deposition, Masson's Trichrome stain” value (rat stomach [1]) was “significant collagen deposition” and the “Rat stomach collagen deposition … 40×” value (rat stomach [1]) was “collagen deposition”. For the same molecule, the “Rat paw collagen deposition” value (rat paw) was “slight collagen deposition”, the “Rat paw histopathology, H&E, 10× magnification” value (rat paw) was “significant decrease in inflammatory reaction (black star) and a moderate decrease in edema” and the “Rat paw histopathology, H&E, 40× magnification” value (rat paw) was “slight inflammatory reaction (black star) and slight edema”. For the same molecule, the “Rat paw histopathology, H&E: inflammatory reaction and edema” value (rat paw) was “significant decrease in the degree of inflammatory reaction (black star), and a moderate decrease in edema”, the “Effect on rat paw edema, in words” value [2] was “significantly reduced rat paw edema; also recorded: dramatically reduced” and the Paw size ([2]; 30 min) was 0.7 cm and 0.6 cm (4×) and 0.65 cm (2×). The Paw size ([2]; 1 hour) was 0.5 cm (2×) and 0.4 cm (4×) and 0.45 cm, the Paw size ([2]; 2 hours) was 0.45 cm and 0.4 cm (3×) and 0.35 cm (3×) and the Paw size ([2]; 3 hours) was 0.4 cm (5×) and 0.35 cm (2×). For the same molecule, the Paw size ([2]; 4 hours) was 0.35 cm (4×) and 0.4 cm (3×), the Paw size ([2]; 5 hours) was 0.5 cm and 0.55 cm (4×) and 0.45 cm (2×) and the “Paw size, Average” value [2] was 0.494 cm. For the same molecule, the Paw size ([2]; zero time) was 0.7 cm (2×) and 0.75 cm (5×), the “Rat stomach gastric layers, H&E” value (rat stomach [3]) was “slight degeneration of gastric layers” and the “Rat stomach inflammatory reaction, H&E” value (rat stomach [3]) was “absence of any inflammatory reaction; also recorded: no sign of inflammatory reaction”.
Cc1ccc(-c2cc(C(F)(F)F)nn2-c2ccc(S(N)(=O)=O)cc2)cc1 [Celecoxib, reference compound] was tested, and the “Cytotoxicity: morphological changes or damages in HEK293 cells” value (HEK293 cells; human, 24 h) was “caused changes and damages in HEK293 cells” and the “Effect on rat paw edema, in words” value [2] was “dramatically reduced”.
CCOC(=O)c1cn(-c2cc(C#N)ccc2O)cc(Oc2ccccc2)c1=O [Compound 2, ethyl-1-(5-cyano-2-hydroxyphenyl)-4-oxo-5-phenoxy-1,4-dihydropyridine-3-carboxylate] was tested, and the “Rat stomach collagen deposition … 10×” value (rat stomach [1]) was “slight collagen deposition”, the “Rat stomach collagen deposition, Masson's Trichrome stain” value (rat stomach [1]) was “slight collagen deposition” and the “Rat stomach collagen deposition … 40×” value (rat stomach [1]) was “slight collagen deposition”. For the same molecule, the “Effect on gastric mucosa, in words” value (rat stomach [1]) was “no effect on gastric mucosa integrity or mucosa collagen content; also recorded: devoid of side effects on gastric mucosa”, the “Rat paw collagen deposition” value (rat paw) was “slight collagen deposition; also recorded: lowest” and the “Rat paw histopathology, H&E, 10× magnification” value (rat paw) was “substantial decrease in both inflammatory reaction (black star) and edema”. The “Rat paw histopathology, H&E, 40× magnification” value (rat paw) was “slight inflammatory reaction (black star) and slight edema”, the “Rat paw histopathology, H&E: inflammatory reaction and edema” value (rat paw) was “reduce inflammatory cell infiltration and alleviate edema with lesser collagen deposition; also recorded: substantial decrease in both inflammatory reaction (black star) and a pronounced decline in edema” and the “Proliferation of HEK293 (difference in absorbance between 450 and 620 nm), individual wells” value (HEK293 cells; 24 hours) was 1.0667 and 1.0476 and 1.0648. The “Proliferation of HEK293 (difference in absorbance between 450 and 620 nm), Average” value (HEK293 cells; 24 hours, WST-1, three wells) was 1.06, the “Effect on rat paw edema, in words” value [2] was “demonstrated to treat paw swelling; also recorded: significant decreases in rat paw size; also recorded: dramatically reduced” and the Paw size ([2]; 30 min) was 0.7 cm (3×) and 0.65 cm (2×) and 0.55 cm (2×). The Paw size ([2]; 1 hour) was 0.55 cm and 0.5 cm (3×) and 0.45 cm (3×), the Paw size ([2]; 2 hours) was 0.45 cm (2×) and 0.4 cm (5×) and the Paw size ([2]; 3 hours) was 0.35 cm and 0.4 cm (5×) and 0.45 cm. The Paw size ([2]; 4 hours) was 0.4 cm (5×) and 0.45 cm (2×), the Paw size ([2]; 5 hours) was 0.55 cm and 0.6 cm (5×) and 0.5 cm and the “Paw size, Average” value [2] was 0.524 cm. For the same molecule, the Paw size ([2]; zero time) was 0.75 cm (5×) and 0.7 cm (2×), the “Rat stomach gastric layers, H&E” value (rat stomach [3]) was “normal gastric layers” and the “Rat stomach inflammatory reaction, H&E” value (rat stomach [3]) was “absence of any inflammatory reaction; also recorded: no sign of inflammatory reaction”.
In the case of O=C(O)Cc1ccccc1Nc1c(Cl)cccc1Cl [Diclofenac, reference compound], the “Proliferation of HEK293 (difference in absorbance between 450 and 620 nm), Average” value (HEK293 cells; human, 24 h) is reported as 1, the “Effect on rat paw edema, in words” value [2] is reported as “significantly reduced rat paw edema” and the Paw size ([2]; 30 min) is reported as 0.7 cm and 0.65 cm (4×) and 0.6 cm (2×). For the same molecule, the Paw size ([2]; 1 hour) was 0.55 cm and 0.5 cm (3×) and 0.4 cm (2×) and 0.45 cm, the Paw size ([2]; 2 hours) was 0.45 cm (4×) and 0.4 cm (3×) and the Paw size ([2]; 3 hours) was 0.4 cm (4×) and 0.35 cm (2×) and 0.45 cm. For the same molecule, the Paw size ([2]; 4 hours) was 0.35 cm (2×) and 0.4 cm (3×) and 0.45 cm (2×), the Paw size ([2]; 5 hours) was 0.55 cm (3×) and 0.6 cm (4×) and the “Paw size, Average” value [2] was 0.518 cm. The Paw size ([2]; zero time) was 0.7 cm (5×) and 0.75 cm (2×).
